According to article PMC11991097 (2025):

Key:
[1] = system: Del-1 (DNA, aptamer) ACCGACCGTGCTGGACTCTAAGGTGGAGTTATAGGCTTACTGCCACGTCAGTATGAGCGAGCGTTGCG; assay: magnetic bead elution; AuNP/PDDA colorimetry; conditions: 50 μg/mL (beads), 2 μg/mL (colorimetry, MOPS); elution much lower than Del; ΔA650/A520 about 0.4
[2] = system: Del-1 (DNA, aptamer) ACCGACCGTGCTGGACTCTAAGGTGGAGTTATAGGCTTACTGCCACGTCAGTATGAGCGAGCGTTGCG; assay: magnetic bead elution, ssDNA absorbance, nonlinear fit; conditions: PBS screening buffer; room temperature, 2 h; Del fixed 50 μg/mL, aptamer varied 50–500 nM; capture strand P displaced

binding [1]	Kd [2]	SMILES
weak		CC1(C)C(C(=O)OC(C#N)c2cccc(Oc3ccccc3)c2)C1(C)C (stereo not drawn)
weak		CC1(C)C(C=C(Cl)Cl)C1C(=O)OC(C#N)c1cccc(Oc2ccccc2)c1 (stereo not drawn)
	82.90 ± 6.272 nM	CC1(C)[C@H](C(=O)O[C@H](C#N)c2cccc(Oc3ccccc3)c2)[C@@H]1C=C(Br)Br
